# Assays:
# GRK5 = molecular target: T1, GRK5 (Homo sapiens, UniProt P34947); test: Lance Kinase Activity Assay, GRK5; conditions: biochemical Lance kinase activity assay; class symbols A-F; read-out: GRK5 LANCE Assay (IC-50)
# T1 construct: purchased Thermo Scientific
# Procedure, shortened: (§1)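 IC50s from sigmoidal dose-response over 0.0025-10 μM compound, with phosphorylated ULight substrate detected by Eu anti-phospho antibody FRET after EDTA quench.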
# [1] = system: neonatal rat ventricular cardiac myocytes (NRVCMs); test: In vitro cardiomyocyte hypertrophy assay; assay type: cell-based, Wistar rats; conditions: inhibition of cellular hypertrophy, NRVCMs stimulated with phenylephrine 20 μM and leukemia inhibitory factor 50 ng/ml, 96 h, read-out: Hypertrophy Assay (IC-50)
# Experimental: 5-6 days old Wistar rats were sacrificed by decapitation and neonatal rat ventricular cardiac myocytes (NRVCMs) were prepared using the Neonatal heart dissociation kit (Miltenyi Biotec) according to the manufacturer's instructions. The cardiac single cell suspension was resuspended in DMEM low glucose medium supplemented with 2% fetal bovine serum (FBS) and 50 μg/ml penicillin/streptomycin. 1500 cells/well were seeded on 0.1% gelatin-coated 384-well plates and incubated in medium at 37° C. and 5% CO2 for 24 h prior to the addition of test compounds to the cells at titrated concentrations. Cellular hypertrophy was then stimulated by adding phenylephrine and leukemia inhibitory factor at final concentrations of 20 μM and 50 ng/ml, respectively, and the cells were incubated for another 96 h. For immunocytochemistry, cells were fixed with 4% formaldehyde on day 5 of compound treatment and cardiomyocytes were stained with antibodies against a-actinin while cell nuclei were stained with DAPI. Image acquisition and phenotypic analysis was performed using an Image-Xpress Micro XL automated microscope (Molecular Devices).
# Inhibition of cellular hypertrophy is indicated as IC50 [nM]. Compounds having an activity designated as “A” provided an IC50≤500 nM; compounds having an activity designated as “B” provided an 500 nM<IC50≤1000 nM; compounds having an activity designated as “C” provided an IC50>1000 nM.
# GRK2 = molecular target: T2, GRK2 (Homo sapiens, UniProt P25098); test: Lance Kinase Activity Assay, GRK2; conditions: biochemical Lance kinase activity assay; class symbols A-F; read-out: GRK2 LANCE Assay (IC-50)
# T2 construct: purchased Thermo Scientific
# T2 sequence (P25098 1-689): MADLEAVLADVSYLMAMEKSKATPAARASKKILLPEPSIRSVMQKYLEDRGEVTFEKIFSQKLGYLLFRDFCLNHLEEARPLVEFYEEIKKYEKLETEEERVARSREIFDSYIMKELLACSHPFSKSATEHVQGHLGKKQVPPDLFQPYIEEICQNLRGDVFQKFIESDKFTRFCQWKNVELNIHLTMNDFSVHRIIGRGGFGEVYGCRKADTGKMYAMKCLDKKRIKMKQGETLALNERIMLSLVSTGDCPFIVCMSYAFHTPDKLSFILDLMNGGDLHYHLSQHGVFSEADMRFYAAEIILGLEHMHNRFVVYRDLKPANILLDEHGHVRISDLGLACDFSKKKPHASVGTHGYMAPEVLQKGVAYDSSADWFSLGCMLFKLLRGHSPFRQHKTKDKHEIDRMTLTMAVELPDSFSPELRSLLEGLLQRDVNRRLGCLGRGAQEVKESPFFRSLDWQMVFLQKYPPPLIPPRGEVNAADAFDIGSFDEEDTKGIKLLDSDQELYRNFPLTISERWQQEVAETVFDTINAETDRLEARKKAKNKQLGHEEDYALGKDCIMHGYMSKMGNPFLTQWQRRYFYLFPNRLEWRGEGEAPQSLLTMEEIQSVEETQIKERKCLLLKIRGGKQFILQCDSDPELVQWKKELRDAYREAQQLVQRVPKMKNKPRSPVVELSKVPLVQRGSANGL
# Procedure, shortened: as §1
# T1 sequence (P34947 whole entry): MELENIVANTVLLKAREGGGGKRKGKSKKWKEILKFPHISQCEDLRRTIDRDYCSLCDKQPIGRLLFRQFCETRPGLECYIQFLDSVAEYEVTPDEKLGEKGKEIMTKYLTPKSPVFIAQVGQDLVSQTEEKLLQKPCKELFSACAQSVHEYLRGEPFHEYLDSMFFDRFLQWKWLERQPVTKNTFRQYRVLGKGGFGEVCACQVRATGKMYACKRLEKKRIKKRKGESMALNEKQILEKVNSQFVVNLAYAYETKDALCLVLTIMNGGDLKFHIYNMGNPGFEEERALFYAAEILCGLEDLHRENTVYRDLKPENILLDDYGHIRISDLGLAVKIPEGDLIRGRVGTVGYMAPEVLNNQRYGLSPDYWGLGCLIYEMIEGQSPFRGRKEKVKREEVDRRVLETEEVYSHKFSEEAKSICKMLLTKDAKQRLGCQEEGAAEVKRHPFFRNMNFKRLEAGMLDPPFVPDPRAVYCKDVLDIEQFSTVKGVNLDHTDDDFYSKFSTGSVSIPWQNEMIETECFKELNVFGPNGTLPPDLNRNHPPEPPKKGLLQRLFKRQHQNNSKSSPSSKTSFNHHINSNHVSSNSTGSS
SMILES,IC50 (GRK5),IC50 [1],IC50 (GRK2)
"C[C@@H](NC(=O)/C(C#N)=C/c1c[nH]c2ncc(-c3cnn(C)c3)cc12)c1ccc2c(c1)OCO2 [Example 252, (R,E)-N-(1-(benzo[d][1,3]dioxol-5-yl)ethyl)-2-cyano-3-(5-(1-methyl-1H-pyrazol-4-yl)-1H-pyrrolo[2,3-b]pyridin-3-yl)acrylamide]",≤ 50 nM,≤ 500 nM,500 to 1000 nM
"COc1ccc([C@@H](C)NC(=O)/C=C/c2c[nH]c3ncc(-c4ccc(S(C)(=O)=O)cc4)cc23)cc1OC [Example 219, (R,E)-N-(1-(3,4-dimethoxyphenyl)ethyl)-3-(5-(4-(methylsulfonyl)phenyl)-1H-pyrrolo[2,3-b]pyridin-3-yl)acrylamide]",≤ 50 nM,> 1000 nM,1000 to 10000 nM
"COc1ccc([C@@H](C)NC(=O)/C=C/c2c[nH]c3ncc(-c4ccc(N5CCN(C)CC5)cc4)cc23)cc1OC [Example 113, (R,E)-N-(1-(3,4-dimethoxyphenyl)ethyl)-3-(5-(4-(4-methylpiperazin-1-yl)phenyl)-1H-pyrrolo[2,3-b]pyridin-3-yl)acrylamide]",≤ 50 nM,≤ 500 nM,500 to 1000 nM
"COc1ccc([C@@H](C)NC(=O)/C(C#N)=C/c2c[nH]c3ncc(-c4ccc(CN(C)C)cc4)cc23)cc1OC [Example 117, (R,E)-2-cyano-N-(1-(3,4-dimethoxyphenyl)ethyl)-3-(5-(4-((dimethylamino)methyl)phenyl)-1H-pyrrolo[2,3-b]pyridin-3-yl)acrylamide]",≤ 50 nM,500 to 1000 nM,1000 to 10000 nM
COc1ccc([C@@H](C)NC(=O)/C(C#N)=C/c2c[nH]c3ncc(-c4ccc(F)c(S(C)(=O)=O)c4)cc23)cc1OC [Example 169],≤ 50 nM,500 to 1000 nM,1000 to 10000 nM
"COc1ccc([C@@H](CO)NC(=O)/C(C#N)=C/c2c[nH]c3ncc(-c4cnn(C)c4)cc23)cc1OC [Example 92, (S,E)-2-cyano-N-(1-(3,4-dimethoxyphenyl)-2-hydroxyethyl)-3-(5-(1-methyl-1H-pyrazol-4-yl)-1H-pyrrolo[2,3-b]pyridin-3-yl)acrylamide]",≤ 50 nM,> 1000 nM,1000 to 10000 nM
"COc1cc([C@@H](C)NC(=O)/C(C#N)=C/c2c[nH]c3ncc(-c4cnn(C)c4)cc23)ccc1F [Example 94, (R,E)-2-cyano-N-(1-(4-fluoro-3-methoxyphenyl)ethyl)-3-(5-(1-methyl-1H-pyrazol-4-yl)-1H-pyrrolo[2,3-b]pyridin-3-yl)acrylamide]",≤ 50 nM,≤ 500 nM,50 to 100 nM
"COc1ccc([C@@H](C)NC(=O)/C=C/c2c[nH]c3ncc(-c4cnn(CCN(C)C)c4)cc23)cc1OC [Example 213, (R,E)-N-(1-(3,4-dimethoxyphenyl)ethyl)-3-(5-(1-(2-(dimethylamino)ethyl)-1H-pyrazol-4-yl)-1H-pyrrolo[2,3-b]pyridin-3-yl)acrylamide]",≤ 50 nM,> 1000 nM,1000 to 10000 nM
"COc1ccc([C@@H](C)NC(=O)/C=C/c2c[nH]c3ncc(-c4cnn5ccccc45)cc23)cc1OC [Example 205, (R,E)-N-(1-(3,4-dimethoxyphenyl)ethyl)-3-(5-(pyrazolo[1,5-a]pyridin-3-yl)-1H-pyrrolo[2,3-b]pyridin-3-yl)acrylamide]",≤ 50 nM,500 to 1000 nM,1000 to 10000 nM
"COc1ccc([C@@H](C)NC(=O)/C=C/c2c[nH]c3ncc(-c4cc(S(C)(=O)=O)ccn4)cc23)cc1OC [Example 259, (R,E)-N-(1-(3,4-dimethoxyphenyl)ethyl)-3-(5-(4-(methylsulfonyl)pyridin-2-yl)-1H-pyrrolo[2,3-b]pyridin-3-yl)acrylamide]",≤ 50 nM,–,1000 to 10000 nM
"Cc1c(-c2cnn(C)c2)cnc2[nH]cc(/C=C(\C#N)C(=O)N[C@H](C)c3ccccc3)c12 [Example 97, (R,E)-2-cyano-3-(4-methyl-5-(1-methyl-1H-pyrazol-4-yl)-1H-pyrrolo[2,3-b]pyridin-3-yl)-N-(1-phenylethyl)acrylamide]",500 to 1000 nM,–,500 to 1000 nM
"COc1ccc([C@@H](C)NC(=O)/C(C#N)=C/c2c[nH]c3ncc(C4=CCCC4)cc23)cc1OC [Example 158, (R,E)-2-cyano-3-(5-(cyclopent-1-en-1-yl)-1H-pyrrolo[2,3-b]pyridin-3-yl)-N-(1-(3,4-dimethoxyphenyl)ethyl)acrylamide]",≤ 50 nM,–,> 10000 nM
COc1ccc([C@@H](C)NC(=O)/C(C#N)=C/c2c[nH]c3ncc(-c4cnn5ccccc45)cc23)cc1OC [Example 167],≤ 50 nM,–,1000 to 10000 nM
"C[C@@H](NC(=O)/C(C#N)=C/c1c[nH]c2ncccc12)c1ccc(F)c(F)c1 [Example 16, (R,E)-2-cyano-N-(1-(3,4-difluorophenyl)ethyl)-3-(1H-pyrrolo[2,3-b]pyridin-3-yl)acrylamide]",50 to 100 nM,–,50 to 100 nM
"N#C/C(=C\c1c[nH]c2ncccc12)C(=O)NCc1ccccc1CN1CCOCC1 [Example 37, (E)-2-cyano-N-(2-(morpholinomethyl)benzyl)-3-(1H-pyrrolo[2,3-b]pyridin-3-yl)acrylamide]",1000 to 10000 nM,–,> 10000 nM
"N#C/C(=C\c1c[nH]c2ncccc12)C(=O)N[C@@H](c1ccccc1)C(F)(F)F [Example 14, (S,E)-2-cyano-3-(1H-pyrrolo[2,3-b]pyridin-3-yl)-N-(2,2,2-trifluoro-1-phenylethyl)acrylamide]",500 to 1000 nM,–,1000 to 10000 nM
"C[C@@H](NC(=O)/C(C#N)=C/c1c[nH]c2ncccc12)c1ccc(Cl)c(Cl)c1 [Example 20, (R,E)-2-cyano-N-(1-(3,4-dichlorophenyl)ethyl)-3-(1H-pyrrolo[2,3-b]pyridin-3-yl)acrylamide]",100 to 500 nM,–,100 to 500 nM
"CN(C)c1cccc(CNC(=O)/C(C#N)=C/c2c[nH]c3ncccc23)c1 [Example 30, (E)-2-cyano-N-(3-(dimethylamino)benzyl)-3-(1H-pyrrolo[2,3-b]pyridin-3-yl)acrylamide]",1000 to 10000 nM,–,> 10000 nM
"COc1ccc([C@@H](C)NC(=O)/C(C#N)=C/c2c[nH]c3ncc(-c4ccc(C5CCN(C)CC5)cc4)cc23)cc1OC [Example 132, (R,E)-2-cyano-N-(1-(3,4-dimethoxyphenyl)ethyl)-3-(5-(4-(1-methylpiperidin-4-yl)phenyl)-1H-pyrrolo[2,3-b]pyridin-3-yl)acrylamide]",≤ 50 nM,–,500 to 1000 nM
"COc1ccc([C@@H](C)NC(=O)/C(C#N)=C/c2c[nH]c3ncc(-c4ccc(N5CCN(C)CC5)cc4)c(C)c23)cc1OC [Example 244, (R,E)-2-cyano-N-(1-(3,4-dimethoxyphenyl)ethyl)-3-(4-methyl-5-(4-(4-methylpiperazin-1-yl)phenyl)-1H-pyrrolo[2,3-b]pyridin-3-yl)acrylamide]",500 to 1000 nM,–,1000 to 10000 nM
"CC(NC(=O)/C(C#N)=C/c1c[nH]c2ncccc12)c1ccc(F)cc1 (stereo not shown) [Example 63, (E)-2-cyano-N-(1-(4-fluorophenyl)ethyl)-3-(1H-pyrrolo[2,3-b]pyridin-3-yl)acrylamide]",100 to 500 nM,–,100 to 500 nM
"COc1ccc([C@@H](C)NC(=O)/C(C#N)=C/c2c[nH]c3ncc(C#N)cc23)cc1OC [Example 86, (R,E)-2-cyano-3-(5-cyano-1H-pyrrolo[2,3-b]pyridin-3-yl)-N-(1-(3,4-dimethoxyphenyl)ethyl)acrylamide]",100 to 500 nM,–,> 10000 nM
"COc1ccc([C@@H](C)NC(=O)/C(C#N)=C/c2c[nH]c3ncc(-c4ccc(N5CCN(C)CC5)cc4)cc23)cc1OC [Example 112, (R,E)-2-cyano-N-(1-(3,4-dimethoxyphenyl)ethyl)-3-(5-(4-(4-methylpiperazin-1-yl)phenyl)-1H-pyrrolo[2,3-b]pyridin-3-yl)acrylamide]",≤ 50 nM,–,500 to 1000 nM

# From US20240294522A1 (Lead Discovery Center GmbH, priority 2021, published 2024)
